Results taken from patent US6579868B1, “Purine derivatives and adenosine A2 receptor antagonists serving as preventives/remedies for diabetes” (Eisai Co., Ltd., priority 1998, dated 2003).
Structures can show the parent of a compound that is named as a salt.

Experiments:
[1] = system: Hepatic cells of primary culture of rats; assay: Suppressing action to NECA-stimulated saccharogenesis (glucose release) in primary cultured rat hepatic cells; assay type: cell-based; conditions: 0.1 μM NECA, 1 h incubation, glucose released into medium
Protocol: Hepatic cells were separated by a collagenase perfusion method from liver of male rats of Wistar strain and subjected to a primary culture in a William's Medium E containing 5% of calf serum, 10^−6 M of insulin, 10^−7 M of dexamethasone and 30 ng/ml of pertussal toxin. After one day, the hepatic cells were washed with a Krebs-Ringer Bicarbonate buffer (pH 7.4 (KRB)) containing 10 mM of HEPES and 0.1% of bovine serum albumin and incubated with KRB at 37° C. After 30 minutes, 0.1 μM of NECA (N-ethylcarboxamide adenosine) and a test compound were added thereto at the same time, the mixture was incubated for additional one hour and the amount of glucose released into an incubation medium was measured.

[2] = system: spontaneous diabetic mice (KK-A^y/Ta Jcl); assay: Action to hyperglycemia of spontaneous diabetic mice (KK-A^y/Ta Jcl), single oral administration; assay type: in vivo, mouse; conditions: 5 h
Protocol: Animals: Five male KK-A^y/Ta Jcl mice for each group (purchased from Nippon Clair)
Preparation and Administration of Test Compound: A test compound in a dose as shown in Table 2 was suspended in a 0.5% aqueous solution of methyl cellulose and was orally administered in a dose of 10 ml/kg.
Collection of Blood Samples and Determination of Blood Sugar: Blood was collected from tail vein immediately before administration of the test compound and also five hours after the administration and blood sugar was determined.
(§1) Method: Tail vein of a mouse was injured by a razor without an anesthetization to bleed slightly. The blood (15 μl) was collected and immediately mixed with 135 μl of a 0.6 M perchloric acid. Glucose in the supernatant obtained by a centrifugal separation (at 1500 g for 10 minutes at 4° C. using a cooling centrifuge GS-6KR of Beckmann) was determined by a Glucose CII Test Wako (Wako Pure Chemicals).
The result is shown in terms of “(% ratio of the blood sugar after 5 hours from the administration to the blood sugar before the administration)±(standard error)”. The data were subjected to a one-way layout analysis of variance and then subjected to a multiple comparison of a Dunnett type. The case where p<0.05 was judged to be that a significant difference was available.
Animals: Five male KK-A^y/Ta Jcl mice for each group (introduced from Nippon Clair)
Preparation and Administration of Test Compound: A test compound in a dose shown in Table 6 was suspended in a 0.5% aqueous solution of methyl cellulose and was orally administered in a dose of 10 ml/kg.
as §1, with “vein of mouse was” for “vein of a mouse was”
The result is shown in terms of “(% ratio of the blood sugar after 5 hours from the administration to the blood sugar before the administration)±(standard error)”. The data were subjected to a one-way layout analysis of variance and then subjected to a multiple comparison of Dunnett type. The case where p<0.05 was judged that a significant difference was available.

SMILES | IC50 [1] [µM] | melting point [°C] | other results
CN(C)c1ccc(-n2c(-c3cccc(F)c3)nc3c(N)nc(C#CC4(O)CCCCC4)nc32)cc1 [Example 3, 1-{2-[6-Amino-9-[4-(dimetylamino)phenyl]-8-(3-fluorophenyl)-9H-2-purinyl]-1-ethynyl}-1-cyclohexanol Dihydrochloride] | 0.13 |  | 
CCn1c(-c2cccc(F)c2)nc2c(N)nc(C#CC3(O)CCC3)nc21.Cl [Example 8, 1-{2-[6-Amino-9-ethyl-8-(3-fluorophenyl)-9H-2-purinyl]-1-ethynyl}-1-cyclobutanol Hydrochloride] | 0.49 | 160 to 163 | % ratio of the blood sugar after 5 hours from the administration to the blood sugar before the administration ± standard error ([2]; Table 2-1, 10 mg/kg oral, solvent group 72.4 ± 4.4): 47.8 ± 4.8%
Cn1c(-c2cccc(F)c2)nc2c(N)nc(C#CC3(O)CCCC3)nc21 [Example 19, 1-{2-[6-Amino-8-(3-fluorophenyl)-9-methyl-9H-2-purinyl]-1-ethynyl}-1-cyclopentanol Sulfate] | 0.47 |  | 
Cn1c(-c2cccc(F)c2)nc2c(N)nc(C#CC3(O)CCCCC3)nc21 [Example 31, 1-{2-[6-Amino-8-(3-fluorophenyl)-9-methyl-9H-2-purinyl]1-ethynyl}-1-cyclohexanol Hydrochloride] | 0.13 |  | 
Cn1c(-c2cccc(F)c2)nc2c(N)nc(C#CC(C)(C)O)nc21 [Example 64 (sulfate), Hydrochloride] | 0.73 |  | 
Cl.Cn1c(-c2cccc(F)c2)nc2c(N)nc(C#CC(C)(C)O)nc21 [Example 64, 4-[6-Amino-8-(3-fluorophenyl)-9-methyl-9H-2-purinyl]-2-methyl-3-butyn-2-ol Hydrochloride] |  |  | % ratio of the blood sugar after 5 hours from the administration to the blood sugar before the administration ± standard error ([2]; Table 2-2, 10 mg/kg oral, solvent group 67.6 ± 2.4): 42.3 ± 4.8%
Cl.Cn1c(-c2cccc(F)c2)nc2c(N)nc(C#CC3(O)CCC3)nc21 [Example 89, 1-{2-[6-Amino-8-(3-fluorophenyl)-9-methyl-9H-2-purinyl]-1-ethynyl}-1-cyclobutanol Hydrochloride] | 0.43 | 198 to 199 | % ratio of the blood sugar after 5 hours from the administration to the blood sugar before the administration ± standard error ([2]; Table 2-2, 30 mg/kg oral, solvent group 67.6 ± 2.4): 38.3 ± 4.4%
COC1CCCCC1(O)C#Cc1nc(N)c2nc(-c3cccc(F)c3)n(C)c2n1 (stereo not drawn) [Example 120, 1-{2-[6-Amino-8-(3-fluorophenyl)-9-methyl-9H-2-purinyl}-1-ethynyl}-2-methoxy-1-cyclohexanol] |  | 281 to 283 | 
COC1CCCCC1(O)C#Cc1nc(N)c2nc(-c3cccc(F)c3)n(C)c2n1 (stereo not drawn) [Example 121, 1-{2-[6-Amino-8-(3-fluorophenyl)-9-methyl-9H-2-purinyl]-1-ethynyl}-2-methoxy-1-cyclohexanol] |  | 195 to 197 | 
Cn1c(-c2cccc(F)c2)nc2c(N)nc(C#CC3(O)C=CCC3)nc21 (stereo not drawn) [Example 122, 1-{2-[6-Amino-8-(3-fluorophenyl)-9-methyl-9H-2-purinyl]-1-ethynyl}-2-cyclopenten-1-ol] |  | 191 to 193 | 
Cn1c(-c2cc(F)cc(F)c2F)nc2c(N)nc(C#CC3(O)CCCC3)nc21 [Example 125, 1-{2-[6-Amino-9-methyl-8-(2,3,5-trifluorophenyl)-9H-2-purinyl]-1-ethynyl}-1-cyclopentanol] |  | 214 to 217 | 
Cn1c(-c2cc(F)cc(F)c2F)nc2c(N)nc(C#CC3(O)CCC3)nc21 [Example 126, 1-{2-[6-Amino-9-methyl-8-(2,3,5-trifluorophenyl)-9H-2-purinyl]-1-ethynyl}-1-cyclobutanol] |  | 231 to 234 | 
Cn1c(-c2cccc(F)c2F)nc2c(N)nc(C#CC3(O)CCC3)nc21 [Example 127, 1-{2-[6-Amino-8-(2,3-difluorophenyl)-9-methyl-9H-2-purinyl]-1-ethynyl}-1-cyclobutanol] |  | 225 to 229 | 
CCn1c(-c2cccc(F)c2)nc2c(N)nc(C#CC3(O)CCCC3)nc21.Cl [Example 133, 1-{2-[6-Amino-9-ethyl-8-(3-fluorophenyl)-9H-2-purinyl]-1-ethynyl}-1-cyclopentanol Hydrochloride] | 0.2 | 188 to 191 | 
Cn1c(-c2ccccc2F)nc2c(N)nc(C#CC3(O)CCC3)nc21 [Example 146, 1-{2-[6-Amino-8-(2-fluorophenyl)-9-methyl-9H-2-purinyl]-1-ethynyl}-1-cyclobutanol] |  | 136 to 138 | 
Cn1c(-c2ccccc2F)nc2c(N)nc(C#CC3(O)CCCC3)nc21 [Example 147, 1-{2-[6-Amino-8-(2-fluorophenyl)-9-methyl-9H-2-purinyl]-1-ethynyl}-1-cyclopentanol] |  | 166 to 168 | 
CCC(O)(C#Cc1nc(N)c2nc(-c3ccccc3F)n(C)c2n1)CC [Example 149] |  | 199 to 201 | 
Cn1c(-c2ccccc2F)nc2c(N)nc(C#CC(C)(C)O)nc21 [Example 156, 4-[6-Amino-8-(2-fluorophenyl)-9-methyl-9H-2-purinyl]-2-methyl-3-butyn-2-ol] |  | 198 to 199 | 
CCCn1c(-c2cccc(F)c2)nc2c(N)nc(C#CC3(O)CCCC3)nc21.Cl [Example 169, 1-{2-[6-Amino-8-(3-fluorophenyl)-9-propyl-9H-2-purinyl]-1-ethynyl}-1-cyclopentanol Hydrochloride] | 0.48 | 198 to 200 | 
CCCn1c(-c2cccc(F)c2)nc2c(N)nc(C#CC3(O)CCC3)nc21.Cl [Example 170, 1-{2-[6-Amino-8-(3-fluorophenyl)-9-propyl-9H-2-purinyl]-1-ethynyl}-1-cyclobutanol Hydrochloride] | 0.5 | 144 to 146 | 
CCCn1c(-c2cccc(F)c2)nc2c(N)nc(C#CC(C)(C)O)nc21.Cl [Example 171, 4-[6-Amino-8-(3-fluorophenyl)-9-propyl-9H-2-purinyl]-2-methyl-3-butyn-2-ol Hydrochloride] | 1.01 | 167 to 168 | 
Cl.Cn1c(-c2cccc(F)c2)nc2c(N)nc(/C=C/C3(O)CCCC3)nc21 [Example 208, 1-[(E)-2-[6-Amino-8-(3-fluorophenyl)-9-methyl-9H-2-purinyl]-1-ethenyl]-1-cyclopentanol Hydrochloride] | 0.27 | > 290 | 
CCn1c(-c2cccc(F)c2)nc2c(N)nc(/C=C/C(C)(C)O)nc21.Cl [Example 210, (E)-4-[6-Amino-9-ethyl-8-(3-fluorophenyl)-9H-2-purinyl]-2-methyl-3-buten-2-ol Hydrochloride] | 0.52 |  | % ratio of the blood sugar after 5 hours from the administration to the blood sugar before the administration ± standard error ([2]; Table 2-3, 10 mg/kg oral, solvent group 70.7 ± 4.6): 51.5 ± 4.6%
Cl.Cn1c(-c2cccc(F)c2)nc2c(N)nc(/C=C/C3(O)CCC3)nc21 [Example 215, 1-[(E)-[6-Amino-8-(3-fluorophenyl)-9-methyl-9H-2-purinyl]-1-ethenyl]-1-cyclobutanol Hydrochloride] | 0.22 | 181 to 184 | 
CCn1c(-c2cccc(F)c2)nc2c(N)nc(CCC(O)(CC)CC)nc21 [Example 235, 1-[6-Amino-9-ethyl-8-(3-fluorophenyl)-9-2-purinyl]-3-ethyl]-3-pentanol Hydrochloride] | 1.27 |  | 
